Assay results: patent US20160220569A1, “CDK4/6 Inhibitor Dosage Formulations For The Protection Of Hematopoietic Stem And Progenitor Cells During Chemotherapy” (G1 Therapeutics, Inc., priority 2015, published 2016)
Where “and” joins values, the source holds several entries; their conditions need not be identical. Equal values may be shown once. Read-outs that look alike come from different tables or passages of the source.

Experiment: Single escalating dose IV infusion pharmacokinetics in healthy volunteers (noncompartmental)
Type: in vivo, human
Settings: for HL_Lambda_z / highest (peak) concentration: individual subjects; for HL_Lambda_z: WinNonlin noncompartmental analysis, in h
Experimental: Forty-five subjects have enrolled in the study.
Analysis of plasma concentration versus time data for calculation of standard pharmacokinetic (PK) parameters following intravenous infusion administration was conducted using Phoenix WinNonlin version 6.3 using a nominal infusion duration and scheduled blood sampling times. Random subject numbers were assigned by the bioanalytical laboratory to retain the blind.
(§1) Analysis of plasma concentration versus time data for calculation of standard pharmacokinetic (PK) parameters following intravenous infusion administration was conducted using Phoenix WinNonlin version 6.3 using a nominal infusion duration and scheduled blood sampling times.
as §1

[1] = Cohort 2, 12 mg/m^2 IV, r6-8=Subjects 1-3,r10=Mean,r12=Min,r13=Median,r14=Max,r16=Geometric Mean, geometric mean
[2] = Cohort 2, 12 mg/m^2 IV, r6-8=Subjects 1-3,r10=Mean,r12=Min,r13=Median,r14=Max,r16=Geometric Mean, mean
[3] = Cohort 2, 12 mg/m^2 IV, r6-8=Subjects 1-3,r10=Mean,r12=Min,r13=Median,r14=Max,r16=Geometric Mean, median
[4] = Cohort 3, 24 mg/m^2 IV, r6-8=Subjects 1-3,r10=Mean,r12=Min,r13=Median,r14=Max,r16=Geometric Mean, geometric mean
[5] = Cohort 3, 24 mg/m^2 IV, r6-8=Subjects 1-3,r10=Mean,r12=Min,r13=Median,r14=Max,r16=Geometric Mean, maximum
[6] = Cohort 3, 24 mg/m^2 IV, r6-8=Subjects 1-3,r10=Mean,r12=Min,r13=Median,r14=Max,r16=Geometric Mean, mean
[7] = Cohort 3, 24 mg/m^2 IV, r6-8=Subjects 1-3,r10=Mean,r12=Min,r13=Median,r14=Max,r16=Geometric Mean, median
[8] = Cohort 3, 24 mg/m^2 IV, r6-8=Subjects 1-3,r10=Mean,r12=Min,r13=Median,r14=Max,r16=Geometric Mean, minimum
[9] = Cohort 4, 48 mg/m^2 IV, r6-8=Subjects 1-3,r10=Mean,r12=Min,r13=Median,r14=Max,r16=Geometric Mean, geometric mean
[10] = Cohort 4, 48 mg/m^2 IV, r6-8=Subjects 1-3,r10=Mean,r12=Min,r13=Median,r14=Max,r16=Geometric Mean, maximum
[11] = Cohort 4, 48 mg/m^2 IV, r6-8=Subjects 1-3,r10=Mean,r12=Min,r13=Median,r14=Max,r16=Geometric Mean, mean
[12] = Cohort 4, 48 mg/m^2 IV, r6-8=Subjects 1-3,r10=Mean,r12=Min,r13=Median,r14=Max,r16=Geometric Mean, median
[13] = Cohort 4, 48 mg/m^2 IV, r6-8=Subjects 1-3,r10=Mean,r12=Min,r13=Median,r14=Max,r16=Geometric Mean, minimum
[14] = Cohort 5, 96 mg/m^2, 30-minute IV infusion, noncompartmental, subjects 1-6, Mean, Min, Median, Max, Geometric Mean, minimum

## CN1CCN(c2ccc(Nc3ncc4cc5n(c4n3)C3(CCCCC3)CNC5=O)nc2)CC1 [Compound 1, 2′-((5-(4-methylpiperazin-1-yl)pyridin-2-yl)amino)-7′,8′-dihydro-6′H-spiro[cyclohexane-1,9′-pyrazino[1′,2′:1,5]pyrrolo[2,3-d]pyrimidin]-6′-one]
Cohort 1, 6 mg/m^2
  HL_Lambda_z: 6.358 and 3.5207 and 4.7366
Cohort 1, 6 mg/m^2 IV
  highest (peak) concentration: 42.7 ng/mL and 42.9 ng/mL and 60.5 ng/mL
Cohort 1, 6 mg/m^2 IV, mean
  Clearance (CL): 91.4 L/h/m^2
  volume of distribution at steady state (Vss) averaging: 358 L/m^2
Cohort 2, 12 mg/m^2
  HL_Lambda_z: 7.5562 and 8.8853
Cohort 2, 12 mg/m^2 IV
  highest (peak) concentration: 87.4 ng/mL and 136 ng/mL
Cohort 2, 12 mg/m^2 IV, mean
  Clearance (CL): 83.5 L/h/m^2
  volume of distribution at steady state (Vss) averaging: 461 L/m^2
[1]
  AUCinf: 146 ng·h/mL
  CL: 82.4 L/h/m^2
  Cmax: 119 ng/mL
  MRTinf: 5.51 h
  Tmax: 0.397 h
  Vss: 454 L/m^2
  λz: 0.0845 h⁻¹
[2]
  CL: 83.5 L/h/m^2
  Vss: 461 L/m^2
  λz: 0.0847 h⁻¹
[3]
  AUCinf: 136 ng·h/mL
  CL: 88.4 L/h/m^2
  Cmax: 136 ng/mL
  MRTinf: 5.98 h
  Vss: 405 L/m^2
  λz: 0.0844 h⁻¹
Cohort 3, 24 mg/m^2
  HL_Lambda_z: 13.1458 and 8.6328 and 7.8478
Cohort 3, 24 mg/m^2 IV, mean
  Clearance (CL): 90.7 L/h/m^2
  volume of distribution at steady state (Vss) averaging: 562 L/m^2
[4]
  AUClast: 253 ng·h/mL
  Vss: 550 L/m^2
  λz: 0.0720 h⁻¹
[5]
  AUClast: 337 ng·h/mL
  Vss: 674 L/m^2
  λz: 0.0883 h⁻¹
[6]
  Vss: 562 L/m^2
  λz: 0.0738 h⁻¹
[7]
  AUClast: 259 ng·h/mL
  Vss: 599 L/m^2
  λz: 0.0803 h⁻¹
[8]
  AUClast: 186 ng·h/mL
  Vss: 412 L/m^2
  λz: 0.0527 h⁻¹
Cohort 4, 48 mg/m^2
  HL_Lambda_z: 10.9028 and 7.2383 and 8.5525
Cohort 4, 48 mg/m^2 IV, mean
  Clearance (CL): 96.5 L/h/m^2
  volume of distribution at steady state (Vss) averaging: 771 L/m^2
Cohort 4, 48 mg/m^2 IV, r6-8=Subjects 1-3,r10=Mean,r12=Min,r13=Median,r14=Max,r16=Geometric Mean
  Tmax: 0.25 h
[9]
  AUCinf: 498 ng·h/mL
  AUClast: 452 ng·h/mL
  CL: 96.4 L/h/m^2
  MRTinf: 7.83 h
  Tmax: 0.397 h
  Vss: 754 L/m^2
  λz: 0.0790 h⁻¹
[10]
  AUCinf: 524 ng·h/mL
  AUClast: 480 ng·h/mL
  CL: 105 L/h/m^2
  Cmax: 228 ng/mL
  MRTinf: 10.7 h
  Vss: 995 L/m^2
  λz: 0.0958 h⁻¹
[11]
  CL: 96.5 L/h/m^2
  Vss: 771 L/m^2
  λz: 0.0801 h⁻¹
[12]
  AUCinf: 514 ng·h/mL
  AUClast: 441 ng·h/mL
  CL: 93.3 L/h/m^2
  Cmax: 227 ng/mL
  MRTinf: 7.80 h
  Vss: 715 L/m^2
  λz: 0.0810 h⁻¹
[13]
  AUCinf: 459 ng·h/mL
  AUClast: 437 ng·h/mL
  CL: 91.7 L/h/m^2
  MRTinf: 5.76 h
  Tmax: 0.250 h
  Vss: 603 L/m^2
  λz: 0.0636 h⁻¹
Cohort 5, 96 mg/m^2, 30-minute IV infusion, noncompartmental, subjects 1-6, Mean, Min, Median, Max, Geometric Mean, mean
  AUClast: 1240 ng·h/mL
[14]
  AUClast: 1040 ng·h/mL
  Tmax: 0.250 h
Cohort 5, 96 mg/m^2 IV, at the end of infusion (EOI)
  maximum mean concentration: 874 ng/mL
Cohort 5, 96 mg/m^2 IV, mean
  Clearance (CL): 74 L/h/m^2
  volume of distribution at steady state (Vss) averaging: 429 L/m^2
Cohort 5, received 96 mg/m^2
  HL_Lambda_z: 8.4971 and 10.9427 and 7.5378 and 10.6557 and 7.1128 and 6.9746
Cohort 6, […]^2 IV, mean
  Clearance (CL): 62.1 L/h/m^2
  volume of distribution at steady state (Vss) averaging: 547 L/m^2
Both sexes, human, plasma, iv, 6 mg/m2, Cohort 1, 6 mg/m^2 IV, mean, read-out: AUCinf averaged
  AUC(0-inf): 67.7 ng·h/mL
Both sexes, human, plasma, iv, 6 mg/m2, Cohort 1, 6 mg/m^2 IV, mean, read-out: Cmax averaged
  Cmax: 50.9 ng/mL
Both sexes, human, plasma, iv, 6 mg/m2, Cohort 1, 6 mg/m^2 IV, mean, read-out: Tmax
  Tmax: 0.33 h
Both sexes, human, plasma, iv, 6 mg/m2, Cohort 1, 6 mg/m^2 IV, mean, read-out: average half-life (converted)
  half-life: 4.87 h
Both sexes, human, plasma, iv, 6 mg/m2, Cohort 1, 6 mg/m^2 IV, r6-8=Subjects 1-3,r10=Mean,r12=Min,r13=Median,r14=Max,r16=Geometric Mean
  MRT inf: 4.18 h
Both sexes, human, plasma, iv, 6 mg/m2, Cohort 1, 6 mg/m^2 IV, r6-8=Subjects 1-3,r10=Mean,r12=Min,r13=Median,r14=Max,r16=Geometric Mean, read-out: AUCinf
  AUC(0-inf): 67.7 ng·h/mL
Both sexes, human, plasma, iv, 6 mg/m2, Cohort 1, 6 mg/m^2 IV, r6-8=Subjects 1-3,r10=Mean,r12=Min,r13=Median,r14=Max,r16=Geometric Mean, read-out: Cmax
  Cmax: 50.9 ng/mL
Both sexes, human, plasma, iv, 6 mg/m2, Cohort 1, 6 mg/m^2 IV, r6-8=Subjects 1-3,r10=Mean,r12=Min,r13=Median,r14=Max,r16=Geometric Mean, read-out: Tmax
  Tmax: 0.333 h
Both sexes, human, plasma, iv, 6 mg/m2, Cohort 1, 6 mg/m^2 IV, r6-8=Subjects 1-3,r10=Mean,r12=Min,r13=Median,r14=Max,r16=Geometric Mean, read-out: t½ (converted)
  half-life: 4.87 h
